Measurements published in the NIST ThermoML archive (doi:10.1021/acs.jced.9b00074).

Assay: xn = mol fraction of the nth substance listed
Conditions: 100 kPa, Liquid; for viscosity: Falling or rolling sphere viscometry; for mass density: Vibrating tube method

CC12CC3CC(C1)CC(C)(C3)C2 [1,3-dimethyladamantane] + C1C[C@@H]2[C@H]3CC[C@H](C3)[C@@H]2C1
Conditions | mass density [kg/m3] | viscosity [mPa·s]
293.15 K, x2 = 0.0998 | 905.2 | 3.715
293.15 K, x2 = 0.2023 | 908.96 | 3.67
293.15 K, x2 = 0.2984 | 912.36 | 3.623
293.15 K, x2 = 0.3996 | 915.9 | 3.555
293.15 K, x2 = 0.4998 | 919.37 | 3.474
293.15 K, x2 = 0.5973 | 922.65 | 3.388
293.15 K, x2 = 0.7005 | 926.17 | 3.293
293.15 K, x2 = 0.8026 | 929.43 | 3.2
293.15 K, x2 = 0.9 | 932.64 | 3.114
298.15 K, x2 = 0.0998 | 901.59 | 3.316
298.15 K, x2 = 0.2023 | 905.3 | 3.277
298.15 K, x2 = 0.2984 | 908.68 | 3.238
298.15 K, x2 = 0.3996 | 912.18 | 3.181
298.15 K, x2 = 0.4998 | 915.61 | 3.116
298.15 K, x2 = 0.5973 | 918.86 | 3.045
298.15 K, x2 = 0.7005 | 922.34 | 2.965
298.15 K, x2 = 0.8026 | 925.59 | 2.885
298.15 K, x2 = 0.9 | 928.76 | 2.814
303.15 K, x2 = 0.0998 | 897.97 | 2.977
303.15 K, x2 = 0.2023 | 901.64 | 2.947
303.15 K, x2 = 0.2984 | 904.99 | 2.915
303.15 K, x2 = 0.3996 | 908.45 | 2.867
303.15 K, x2 = 0.4998 | 911.85 | 2.81
303.15 K, x2 = 0.5973 | 915.06 | 2.75
303.15 K, x2 = 0.7005 | 918.51 | 2.68
303.15 K, x2 = 0.8026 | 921.77 | 2.618
303.15 K, x2 = 0.9 | 924.88 | 2.555
308.15 K, x2 = 0.0998 | 894.36 | 2.687
308.15 K, x2 = 0.2023 | 897.98 | 2.666
308.15 K, x2 = 0.2984 | 901.29 | 2.637
308.15 K, x2 = 0.3996 | 904.71 | 2.601
308.15 K, x2 = 0.4998 | 908.08 | 2.547
308.15 K, x2 = 0.5973 | 911.26 | 2.495
308.15 K, x2 = 0.7005 | 914.67 | 2.438
308.15 K, x2 = 0.8026 | 917.91 | 2.385
308.15 K, x2 = 0.9 | 921 | 2.332
313.15 K, x2 = 0.0998 | 890.74 | 2.44
313.15 K, x2 = 0.2023 | 894.32 | 2.422
313.15 K, x2 = 0.2984 | 897.59 | 2.394
313.15 K, x2 = 0.3996 | 900.98 | 2.363
313.15 K, x2 = 0.4998 | 904.31 | 2.319
313.15 K, x2 = 0.5973 | 907.45 | 2.275
313.15 K, x2 = 0.7005 | 910.84 | 2.227
313.15 K, x2 = 0.8026 | 914.04 | 2.179
313.15 K, x2 = 0.9 | 917.12 | 2.136
318.15 K, x2 = 0.0998 | 887.12 | 2.222
318.15 K, x2 = 0.2023 | 890.65 | 2.209
318.15 K, x2 = 0.2984 | 893.89 | 2.185
318.15 K, x2 = 0.3996 | 897.24 | 2.157
318.15 K, x2 = 0.4998 | 900.53 | 2.121
318.15 K, x2 = 0.5973 | 903.65 | 2.081
318.15 K, x2 = 0.7005 | 906.99 | 2.042
318.15 K, x2 = 0.8026 | 910.17 | 2.002
318.15 K, x2 = 0.9 | 913.23 | 1.964
323.15 K, x2 = 0.0998 | 883.5 | 2.032
323.15 K, x2 = 0.2023 | 886.99 | 2.02
323.15 K, x2 = 0.2984 | 890.18 | 2.001
323.15 K, x2 = 0.3996 | 893.49 | 1.978
323.15 K, x2 = 0.4998 | 896.75 | 1.946
323.15 K, x2 = 0.5973 | 899.83 | 1.915
323.15 K, x2 = 0.7005 | 903.15 | 1.879
323.15 K, x2 = 0.8026 | 906.3 | 1.844
323.15 K, x2 = 0.9 | 909.33 | 1.812
328.15 K, x2 = 0.0998 | 879.87 | 1.867
328.15 K, x2 = 0.2023 | 883.31 | 1.857
328.15 K, x2 = 0.2984 | 886.47 | 1.839
328.15 K, x2 = 0.3996 | 889.74 | 1.819
328.15 K, x2 = 0.4998 | 892.97 | 1.794
328.15 K, x2 = 0.5973 | 896.02 | 1.764
328.15 K, x2 = 0.7005 | 899.3 | 1.734
328.15 K, x2 = 0.8026 | 902.43 | 1.704
328.15 K, x2 = 0.9 | 905.43 | 1.677
333.15 K, x2 = 0.0998 | 876.23 | 1.719
333.15 K, x2 = 0.2023 | 879.65 | 1.714
333.15 K, x2 = 0.2984 | 882.76 | 1.696
333.15 K, x2 = 0.3996 | 885.99 | 1.679
333.15 K, x2 = 0.4998 | 889.18 | 1.657
333.15 K, x2 = 0.5973 | 892.2 | 1.631
333.15 K, x2 = 0.7005 | 895.45 | 1.605
333.15 K, x2 = 0.8026 | 898.54 | 1.58
333.15 K, x2 = 0.9 | 901.52 | 1.557

CC12CC3CC(C1)CC(C)(C3)C2 [1,3-dimethyladamantane] + OC1CCCC1
Conditions | mass density [kg/m3] | viscosity [mPa·s]
293.15 K, x2 = 0.0963 | 903.9 | 3.868
293.15 K, x2 = 0.1973 | 906.97 | 4.123
293.15 K, x2 = 0.3101 | 910.8 | 4.531
293.15 K, x2 = 0.4019 | 914.34 | 4.967
293.15 K, x2 = 0.4995 | 918.49 | 5.61
293.15 K, x2 = 0.5999 | 923.27 | 6.396
293.15 K, x2 = 0.6997 | 928.58 | 7.57
293.15 K, x2 = 0.7976 | 934.17 | 8.863
293.15 K, x2 = 0.9003 | 940.6 | 10.32
298.15 K, x2 = 0.0963 | 900.22 | 3.42
298.15 K, x2 = 0.1973 | 903.23 | 3.627
298.15 K, x2 = 0.3101 | 907 | 3.953
298.15 K, x2 = 0.4019 | 910.49 | 4.3
298.15 K, x2 = 0.4995 | 914.58 | 4.805
298.15 K, x2 = 0.5999 | 919.31 | 5.428
298.15 K, x2 = 0.6997 | 924.57 | 6.304
298.15 K, x2 = 0.7976 | 930.15 | 7.3
298.15 K, x2 = 0.9003 | 936.59 | 8.417
303.15 K, x2 = 0.0963 | 896.53 | 3.048
303.15 K, x2 = 0.1973 | 899.47 | 3.212
303.15 K, x2 = 0.3101 | 903.18 | 3.477
303.15 K, x2 = 0.4019 | 906.62 | 3.756
303.15 K, x2 = 0.4995 | 910.65 | 4.154
303.15 K, x2 = 0.5999 | 915.31 | 4.643
303.15 K, x2 = 0.6997 | 920.53 | 5.319
303.15 K, x2 = 0.7976 | 926.1 | 6.092
303.15 K, x2 = 0.9003 | 932.59 | 6.972
308.15 K, x2 = 0.0963 | 892.84 | 2.729
308.15 K, x2 = 0.1973 | 895.7 | 2.863
308.15 K, x2 = 0.3101 | 899.33 | 3.076
308.15 K, x2 = 0.4019 | 902.72 | 3.302
308.15 K, x2 = 0.4995 | 906.7 | 3.618
308.15 K, x2 = 0.5999 | 911.29 | 4.007
308.15 K, x2 = 0.6997 | 916.45 | 4.532
308.15 K, x2 = 0.7976 | 922.01 | 5.135
308.15 K, x2 = 0.9003 | 928.43 | 5.829
313.15 K, x2 = 0.0963 | 889.12 | 2.457
313.15 K, x2 = 0.1973 | 891.91 | 2.565
313.15 K, x2 = 0.3101 | 895.47 | 2.736
313.15 K, x2 = 0.4019 | 898.8 | 2.919
313.15 K, x2 = 0.4995 | 902.71 | 3.174
313.15 K, x2 = 0.5999 | 907.24 | 3.484
313.15 K, x2 = 0.6997 | 912.35 | 3.891
313.15 K, x2 = 0.7976 | 917.88 | 4.365
313.15 K, x2 = 0.9003 | 924.29 | 4.915
318.15 K, x2 = 0.0963 | 885.4 | 2.222
318.15 K, x2 = 0.1973 | 888.1 | 2.307
318.15 K, x2 = 0.3101 | 891.59 | 2.447
318.15 K, x2 = 0.4019 | 894.85 | 2.595
318.15 K, x2 = 0.4995 | 898.7 | 2.801
318.15 K, x2 = 0.5999 | 903.16 | 3.048
318.15 K, x2 = 0.6997 | 908.21 | 3.368
318.15 K, x2 = 0.7976 | 913.7 | 3.742
318.15 K, x2 = 0.9003 | 920.09 | 4.179
323.15 K, x2 = 0.0963 | 881.66 | 2.018
323.15 K, x2 = 0.1973 | 884.27 | 2.083
323.15 K, x2 = 0.3101 | 887.67 | 2.199
323.15 K, x2 = 0.4019 | 890.88 | 2.32
323.15 K, x2 = 0.4995 | 894.66 | 2.485
323.15 K, x2 = 0.5999 | 899.04 | 2.681
323.15 K, x2 = 0.6997 | 904.03 | 2.935
323.15 K, x2 = 0.7976 | 909.47 | 3.234
323.15 K, x2 = 0.9003 | 915.84 | 3.582
328.15 K, x2 = 0.0963 | 877.91 | 1.841
328.15 K, x2 = 0.1973 | 880.42 | 1.893
328.15 K, x2 = 0.3101 | 883.74 | 1.984
328.15 K, x2 = 0.4019 | 886.87 | 2.082
328.15 K, x2 = 0.4995 | 890.58 | 2.217
328.15 K, x2 = 0.5999 | 894.89 | 2.376
328.15 K, x2 = 0.6997 | 899.81 | 2.576
328.15 K, x2 = 0.7976 | 905.2 | 2.814
328.15 K, x2 = 0.9003 | 911.54 | 3.093
333.15 K, x2 = 0.0963 | 874.14 | 1.686
333.15 K, x2 = 0.1973 | 876.55 | 1.724
333.15 K, x2 = 0.3101 | 879.77 | 1.797
333.15 K, x2 = 0.4019 | 882.83 | 1.877
333.15 K, x2 = 0.4995 | 886.46 | 1.987
333.15 K, x2 = 0.5999 | 890.7 | 2.116
333.15 K, x2 = 0.6997 | 895.55 | 2.275
333.15 K, x2 = 0.7976 | 900.88 | 2.469
333.15 K, x2 = 0.9003 | 907.18 | 2.689
